Data set [1] has as its system tocopherol hydroxylase. In words: Tissue enrichment in δ-tocopherol in mice in vivo (diet feeding, GC-MS). To be noted: 10 days. The protocol:
Two groups of mice (n=3) were fed a chow diet enriched with δ-tocopherol (6000 mg per kg diet), with or without 500 mg per kg (R)-2-(9-(1H-1,2,4-triazol-1-yl)nonyl)-2,5,7,8-tetramethylchroman-6-ol. After 10 days on diet, mice were fasted for 5 hrs, euthanized, and tocopherol concentrations determined in plasma, liver and bile, using GC-MS procedures and d9-3′-carboxyethylchromanol as internal standard (Sontag T J et al.).
Therefore data shown in FIG. 2 are presented as the δ-tocopherol/α-tocopherol ratio, where an increase in the ratio reflects enrichment in δ-tocopherol relative to α-tocopherol.

For data set [2], the target named is T1, tocopherol hydroxylase activity in HepG2/C3A cultures (Homo sapiens, UniProt P78329).
T1 construct: Confluent cultures of the human heptoblastoma cell line, HepG2/C3A; endogenous in cells; host or cells: HepG2/C3A
T1 sequence (P78329 5-520): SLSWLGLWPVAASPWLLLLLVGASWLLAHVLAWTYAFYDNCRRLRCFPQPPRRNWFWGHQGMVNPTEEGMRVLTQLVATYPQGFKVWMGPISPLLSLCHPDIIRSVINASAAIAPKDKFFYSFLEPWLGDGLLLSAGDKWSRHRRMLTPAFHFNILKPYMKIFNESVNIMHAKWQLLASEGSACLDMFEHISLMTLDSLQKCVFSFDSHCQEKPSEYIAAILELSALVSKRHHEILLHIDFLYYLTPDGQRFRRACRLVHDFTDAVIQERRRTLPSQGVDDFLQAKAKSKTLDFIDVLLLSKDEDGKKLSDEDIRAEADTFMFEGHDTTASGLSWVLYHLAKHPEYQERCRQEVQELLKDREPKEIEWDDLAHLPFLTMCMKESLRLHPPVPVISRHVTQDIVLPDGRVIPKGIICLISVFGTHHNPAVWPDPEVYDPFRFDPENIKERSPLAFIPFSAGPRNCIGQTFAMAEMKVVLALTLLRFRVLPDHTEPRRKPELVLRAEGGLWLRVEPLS
In words: Metabolism of γ-tocopherol (ω-oxidation products by GC-MS) in HepG2/C3A hepatoblastoma cultures. The format is cell-based. As to conditions: 48 hours; for EC50: 4 hour pre-incubation, 25 μM γ-tocopherol as substrate, read-out: concentration required to inhibit tocopherol hydroxylase activity by 50% (EC50). The protocol: (§1) (R)-2-(9-(1H-1,2,4-triazol-1-yl)nonyl)-2,5,7,8-tetramethylchroman-6-ol and γ-tocopherol stock solutions were prepared in ethanol. Confluent cultures of the human heptoblastoma cell line, HepG2/C3A, were pre-incubated with varying concentrations of (R)-2-(9-(1H-1,2,4-triazol-1-yl)nonyl)-2,5,7,8-tetramethylchroman-6-ol or ethanol for 4 hours, followed by addition of 25 μM γ-tocopherol. After 48 hours, culture media was collected and analyzed for ω-oxidation products of γ-tocopherol (the 3′- and 5′-carboxychromanols) by GC-MS, using d9-3′-carboxyethylchromanol as internal standard (Sontag T J et al. (2002) J Biol Chem 277: 25290-25296).
The effect of the triazole compounds were tested in human hepatoblastoma cell culture as described in Example 1, i.e. using 25 μM γ-tocopherol as substrate and 4 hour pre-incubation with the synthetic inhibitors.

Data set [3] concerns HepG2/C3A. Put plainly: Cell protein and monolayer morphology of HepG2/C3A cultures. The format is cell-based, human. To be noted: 48 hours. The protocol:
as §1
There was no effect of (R)-2-(9-(1H-1,2,4-triazol-1-yl)nonyl)-2,5,7,8-tetramethylchroman-6-ol on cell protein and all monolayers appeared normal in morphology.

[4] abbreviates: 500 mg per kg diet with δ-tocopherol 6000 mg per kg diet, versus control, P<0.05.

In the case of `Cc1c(C)c2c(c(C)c1O)CC[C@@](C)(CCCCCCCCCn1ccnc1)O2` [(R)-2-(9-(1H-imidazol-1-yl)nonyl)-2,5,7,8-tetramethylchroman-6-ol], the “δ-tocopherol/α-tocopherol ratio in bile” value in data set [1] (setting [4]) is “tripled”. The EC50 in data set [2] is 1 to 2 nM.
Take `Cc1c(C)c2c(c(C)c1O)CC[C@@](C)(CCCCCCCCCn1cncn1)O2` [(R)-2-(9-(1H-1,2,4-triazol-1-yl)nonyl)-2,5,7,8-tetramethylchroman-6-ol]: the “δ-tocopherol/α-tocopherol ratio in mouse liver” value in data set [1] (setting [4]) was “doubling”. The α-tocopherol status entry in data set [1] (mice, 500 mg per kg diet) was “no evidence that α-tocopherol status was affected”. Also, in data set [3], the “effect on cell protein” value is listed as “no effect” and the morphology of monolayers entry is recorded as “normal”. For the same molecule, the EC50 in data set [2] was ~1 nM. Moreover, in data set [2] (at compound concentrations above 10 nM, 25 μM γ-tocopherol), the Tocopherol hydroxylase activity result was “completely abolished”.

For the origin of these results see patent publication US7732617B2, “Tocopherol derivatives and uses thereof” (Brock University, priority 2007, dated 2010).
